Consider 18 compounds from patent EP0816362A1, “THIAZOLE DERIVATIVES” (TAISHO PHARMACEUTICAL CO. LTD, priority 1995, dated 1996).

Test system in the first data set: not given
Experiment: not given
The note with it: Summary and Clinical Data, Sandoz, Canada Inc. (1990); a case of death also reported; cited from earlier work.
Take `CN1CCN(C2=Nc3cc(Cl)ccc3Nc3ccccc32)CC1` [clozapine]: the blood disorder result was “agranulocytosis”.

Still in this data set, the particulars now being: clinical experiments, compared with dopamine D2 receptor antagonist; cited from earlier work.
With `CN1CCN(C2=Nc3cc(Cl)ccc3Nc3ccccc32)CC1` [clozapine], the extrapyramidal disorder result is “less extrapyramidal disorder”.

For another data set, the target named is T1, human D4.2 receptor (Homo sapiens, UniProt P21917, DEL265-296).
T1 sequence (P21917 with tags, fused parts or gaps DEL265-296): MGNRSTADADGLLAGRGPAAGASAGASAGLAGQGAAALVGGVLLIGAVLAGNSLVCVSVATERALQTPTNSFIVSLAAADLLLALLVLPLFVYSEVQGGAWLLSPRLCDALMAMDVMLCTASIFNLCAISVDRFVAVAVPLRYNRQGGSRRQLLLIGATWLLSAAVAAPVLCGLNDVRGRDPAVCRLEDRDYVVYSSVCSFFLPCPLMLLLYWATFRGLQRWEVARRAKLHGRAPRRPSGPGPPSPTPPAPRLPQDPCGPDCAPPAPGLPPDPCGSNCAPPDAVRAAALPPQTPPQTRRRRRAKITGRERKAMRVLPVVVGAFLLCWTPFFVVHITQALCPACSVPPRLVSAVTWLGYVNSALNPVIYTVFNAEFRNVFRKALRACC
The experiment in a line: Dopamine D4 receptor binding experiment ([3H]-spiperone). The note with it: CHO cell membranes expressing human D4.2 receptor, [3H]-spiperone (0.5 nM), 27°C, 2 hours. The procedure:
As a receptor preparation, Chinese hamster ovary (CHO) cell membranes where human D4.2 receptor was expressed were used.
As [^3H]-labeled ligand, [^3H]-spiperone was used.
Human D4.2 receptor binding test: CHO cell membranes where human D4.2 receptor was expressed, [^3H]-spiperone (0.5 nM) and a test drug were reacted at 27°C for 2 hours in 50 mM Tris-HCl buffer, pH 7.4 containing 5 mM EDTA, 1.5 mM calcium chloride, 5 mM potassium chloride and 120 mM sodium chloride.
After the reaction, the sample was filtered under suction through a glass filter (GF/B), and the radioactivity of the filter paper was determined in a liquid scintillation spectrometer.
The binding of [^3H]-spiperone in the presence of 10 µM haloperidol was assumed to be non-specific binding, and the difference between the total binding and the non-specific binding was assumed to be specific binding.
As a reminder, the IC50 is the midpoint of a concentration-inhibition curve. Low values mean inhibition by little substance, high ones a need for much substance. Consider `Nc1nc(-c2ccc(F)cc2)c(C2CCN(CCCc3nsc4ccccc34)C2)s1` (stereo not shown) [Compound E-10], for which the IC50 stood at 13.9 nM.
In turn, `Cc1nc(-c2ccccc2)c(CCN2CCC(C(=O)c3ccc(F)cc3)CC2)s1` [Compound K-30] yielded an IC50 of 2.15 nM.
On the same count and under the same terms, next, `Cc1nc(-c2ccc(F)cc2)c(CCN2CCC(C(=O)c3ccc(F)cc3F)CC2)s1` [Compound K-23]: 11.5 nM.
On the same count and under the same terms, as for `Nc1nc(-c2ccc(F)cc2)c(C2CCN(CCCc3nsc4cc(F)ccc34)C2)s1` (stereo not shown) [Compound E-11, 2-amino-4-(4-fluorophenyl)-5-[1-[3-(6-fluoro-1,2-benzisothiazol-3-yl)propyl]pyrrolidin-3-yl]thiazole], the figure is 7.22 nM; as for `CNc1nc(-c2ccc(F)cc2)c(C2CCN(CCCC(=O)c3ccc(F)cc3)C2)s1` (racemic) [Compound D-13], 12.6 nM; as for `Nc1nc(-c2cccc(F)c2)c(C2CCN(CCCC(=O)c3ccc(F)cc3)C2)s1` (racemic) [Compound D-09], 32 nM.
On the same count and under the same terms, next, `Nc1nc(-c2ccc(F)cc2)c(C2CCN(CCCC(=O)c3ccc(F)cc3)C2)s1` (single isomer, unassigned; (+)) [Compound F-05, (+)-2-amino-4-(4-fluorophenyl)-5-[1-[4-(4-fluorophenyl)-4-oxobutyl]pyrrolidin-3-yl]thiazole]: 6.58 nM.

Still in this data set, the particulars now being: inhibition of [3H]-spiperone binding, human D4.2 receptor.
`COc1ccc(-c2nc(C)sc2CCN2CCC(=Cc3ccc(F)cc3)CC2)cc1Br` [Compound L-22]: the IC50 was 13.9 nM.
Regarding `Cc1nc(-c2ccc(Cl)cc2)c(CCN2CCC(=Cc3ccc(F)cc3)CC2)s1` [Compound L-18], the 50% inhibitory concentration (IC50) was 9.55 nM.
Take `CNc1nc(-c2ccc(F)cc2)c(CCN2CCC(=Cc3ccc(F)cc3)CC2)s1` [Compound L-35]: the concentration for half-maximal inhibition (IC50) came to 2.15 nM.
As for `Nc1nc(-c2ccc(F)cc2)c(CCN2CCC(=Cc3cccc(F)c3)CC2)s1` [Compound L-11], the IC50 turned out to be 2.85 nM.
In turn, `Fc1ccc(-c2ncsc2CCN2CCC(=Cc3ccccc3)CC2)cc1` [Compound L-33] came in with an IC50 of 3.43 nM.
Same read-out and setting: next, `CNc1nc(-c2ccc(F)cc2)c(CCN2CCC(C(=O)c3ccc(F)cc3)CC2)s1` [Compound K-36]: 3.43 nM.
`Cc1nc(-c2ccc(F)cc2)c(CCN2CCC(=Cc3ccc(F)cc3)CC2)s1` [Compound L-17] returned an IC50 of 12.6 nM.
Same read-out and setting: next, `CC(=C1CCN(CCc2sc(N)nc2-c2ccc(F)cc2)CC1)c1ccc(F)cc1` [Compound L-15]: 7.92 nM; `COc1ccc(C=C2CCN(CCc3sc(N)nc3-c3ccc(F)cc3)CC2)cc1` [Compound L-10]: 29.2 nM; `Cc1nc(-c2ccc(F)cc2)c(CCN2CCC(=Cc3ccc(Br)cc3)CC2)s1` [Compound L-25]: 29.2 nM.
